Laboratory results reported in patent US20160243271A1, “Essential Oils Or Volatile Organics Thereof Electrospun In Chitosan Nanofiber Mats” (UNIVERSITY OF MASSACHUSETTS, priority 2013, published 2016).
Converted amounts (≈) assume the structure as drawn.

What was measured:
Escherichia coli S20918 = test: Viability loss of E. coli, modified ASTM E2149-01 shake flask method; type: cell-based; settings: 3 mM CA solution
Experimental: (§1) The model organisms were Escherichia coli S20918 (E. coli) and P. aeruginosa S20930 (P. aeruginosa), purchased from Thermo Fisher Scientific, Waltham, Mass. The bacteria were grown in LB at 37.0 and harvested at a concentration of 10^8 cells/mL. To remove residual macromolecules and other growth medium constituents, cells were washed twice and then resuspended in an isotonic solution (0.9% NaCl, pH 5.7). This isotonic solution was used for E. coli and P. aeruginosa loss of viability studies.
The viability loss of E. coli in contact with chitosan/CA(0, 0.5, and 5.0%)/PEO nanofiber mats was assayed according to a modified ASTM E2149-01 shake flask method.^30 In parallel to each experiment (i) a blank control (no nanofiber mat) and (ii) an MIC control of CA for E. coli (3 mM CA in solution) were employed.^19 Electrospun mats (10 mm×20 mm) were placed into culture tubes (16 mm×125 mm) along with 4 mL suspensions of E. coli or P. aeruginosa (5×10^6 cells/mL) in an isotonic solution (0.9% NaCl, pH 5.7). The suspensions were shaken at 200 rpm in an orbital shaker maintained at 37° C. At 30, 90, and 180 minutes, 100 μL were pipetted out from the tubes and serial dilutions were plated onto LB plates using the spread plate method.^30-32 After 24 hr incubation on agar plates, the number of viable bacteria was counted. The number of viable cells was multiplied by the dilution factor and expressed as the mean colony forming unit (CFU) per mL. The percent reduction of bacteria resulting from contact with the nanofiber mats was determined using Equation 1 where A represents the mean log10 density of bacteria for the flask containing the treated substrate after the specified contact time and B represents the untreated substrate after the specified contact time.

P. aeruginosa S20930 = test: Viability loss of P. aeruginosa, PI/DAPI fluorescence assay; type: cell-based, Pseudomonas aeruginosa
Experimental: as §1
Viability loss of P. aeruginosa in contact with chitosan/CA(0, 0.5, and 5.0%)/PEO nanofiber mats was determined using a previously described fluorescence assay.^33 Electrospun mats (20 mm×10 mm) were placed at the bottom of 35 mm×10 mm petri dishes (Becton, Dickinson & Co., Franklin Lakes, N.J.) to which the cells (10^7 cells/mL) resuspended in an isotonic solution were added and diluted by a factor of 2. The cells were incubated at 37° C. for various times (30, 90, and 180 min). […] Fluorescence images were acquired to detect the cells utilizing an epifluorescence microscope (Olympus) with a Chroma cube filter. […] Dead cells and the total number of cells were determined by direct cell counting. […] Throughout the Results and Discussion section, all statistical differences were determined using an unpaired t-test with values of p≦0.05 considered to be statistically significant.

E. coli = settings: CA in solution; cited from earlier work

## O=CC=Cc1ccccc1 [CA, cinnamaldehyde]
Escherichia coli S20918; no nanofiber mat
  E. coli inactivation compared with blank control: statistically inactivated more E. coli than the blank control
Escherichia coli S20918; after 30 and 180 min
  antibacterial activity against E. coli compared with nanofiber mats: statistically lower level of antibacterial activity
Escherichia coli S20918; at 90 min
  antibacterial activity against E. coli compared with nanofiber mats: statistically equivalent to the chitosan/CA(0.5%)/PEO nanofiber mats
P. aeruginosa S20930; after 30 min
  P. aeruginosa inactivation, statistical comparison: statistically equivalent
P. aeruginosa S20930; at 90 min
  P. aeruginosa inactivation, statistical comparison: statistically equivalent level as the chitosan/CA(0.5 and 5.0%)/PEO nanofiber mats
E. coli
  MIC: 3000 µM (≈ 396 µg/mL)
